# Assay results reported in PubChem BioAssay AID330 (DTP/NCI, 2004).
# Where “and” joins values, the source holds several entries; their conditions need not be identical. Equal entries are not always repeated. Inconclusive results and toxic doses are left out.
# System: P388 leukemia ip, CD2F1 mice, survival T/C
# Experiment: NCI In Vivo Anticancer Drug Screen. Data for tumor model P388 Leukemia (intraperitoneal) in CD2F1 (CDF1) mice
# Conditions: endpoint: median survival time, higher = longer survival
# Method in brief: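 Mice carrying the transplanted tumor received test compound or vehicle. Survival was recorded in each group, and the value is the treated-group measurement divided by that of the vehicle-treated control group.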
# [1] = dose: 7.5 mg/kg/injection, schedule: Q01DX005 (ip), vehicle: saline with Tween-80
# [2] = dose: 15.0 mg/kg/injection, schedule: Q01DX005 (ip), vehicle: saline with Tween-80
smiles,measurement,setting,value
CN(C)c1ccc(/C=N/N=C(/C#N)[S][Sn]([S]/C(C#N)=N/N=C/c2ccc(N(C)C)cc2)([c]2ccccc2)[c]2ccccc2)cc1,T/C,[1],112 % of control
same,T/C,[2],123 % of control
COC(=O)C1=C(C(=O)OC)P(I)(c2ccccc2)(c2ccccc2)N(C)C1(c1ccccc1)c1ccccc1,T/C,"dose: 50.0 mg/kg/injection, schedule: Q01DX005 (ip), vehicle: Klucel (hydroxypropylcellulose) (HPC)",100 % of control
same,T/C,"dose: 100.0 mg/kg/injection, schedule: Q01DX005 (ip), vehicle: Klucel (hydroxypropylcellulose) (HPC)",100 % of control
same,T/C,"dose: 200.0 mg/kg/injection, schedule: Q01DX005 (ip), vehicle: Klucel (hydroxypropylcellulose) (HPC)",90 % of control
O=C(CC(=O)c1ccc(Cl)s1)C(=O)NC1C2CC3CC(C2)CC1C3 (configuration not stated),T/C,[1],100 % of control
same,T/C,[2],102 % of control
same,T/C,"dose: 30.0 mg/kg/injection, schedule: Q01DX005 (ip), vehicle: saline with Tween-80",100 % of control
same,T/C,"dose: 60.0 mg/kg/injection, schedule: Q01DX005 (ip), vehicle: saline with Tween-80",94 % of control and 95 % of control
CO[C@H]1C[C@](C)(O)Cc2cc3c(c(O)c21)C(=O)c1c(O)cc2c(c1C3=O)O[C@@H]1O[C@@]2(C)[C@H](O)[C@@H](N(C)C)[C@@H]1O,T/C,"dose: 1.5 mg/kg/injection, schedule: Q01DX005 (iv), vehicle: clinical formulation",115 % of control
same,T/C,"dose: 1.56 mg/kg/injection, schedule: Q01DX009 (ip), vehicle: other",156 % of control and 166 % of control
same,T/C,"dose: 1.6 mg/kg/injection, schedule: Q01DX009 (oral), vehicle: other",95 % of control
same,T/C,"dose: 2.5 mg/kg/injection, schedule: Q01DX005 (ip), vehicle: clinical formulation",158 % of control and 166 % of control
same,T/C,"dose: 2.5 mg/kg/injection, schedule: Q01DX005 (ip), vehicle: other",165 % of control
same,T/C,"dose: 3.0 mg/kg/injection, schedule: Q01DX005 (iv), vehicle: other",124 % of control
same,T/C,"dose: 3.0 mg/kg/injection, schedule: Q01DX009 (ip), vehicle: other",159 % of control
same,T/C,"dose: 3.12 mg/kg/injection, schedule: Q01DX009 (ip), vehicle: saline + alcohol",157 % of control
same,T/C,"dose: 3.13 mg/kg/injection, schedule: Q01DX009 (oral), vehicle: other",100 % of control and 102 % of control
same,T/C,"dose: 3.13 mg/kg/injection, schedule: Q01DX009 (oral), vehicle: saline",103 % of control
same,T/C,"dose: 4.5 mg/kg/injection, schedule: Q01DX005 (ip), vehicle: other",156 % of control and 161 % of control
same,T/C,"dose: 4.5 mg/kg/injection, schedule: Q01DX005 (iv), vehicle: clinical formulation",160 % of control and 169 % of control
same,T/C,"dose: 5.0 mg/kg/injection, schedule: Q01DX005 (ip), vehicle: clinical formulation",185 % of control and 190 % of control
same,T/C,"dose: 5.0 mg/kg/injection, schedule: Q01DX005 (ip), vehicle: distilled water + Tween-80",158 % of control and 178 % of control
same,T/C,"dose: 5.0 mg/kg/injection, schedule: Q01DX005 (ip), vehicle: other",185 % of control
same,T/C,"dose: 6.25 mg/kg/injection, schedule: Q01DX009 (ip), vehicle: saline + alcohol",157 % of control
same,T/C,"dose: 6.25 mg/kg/injection, schedule: Q01DX009 (oral), vehicle: other",110 % of control and 113 % of control and 122 % of control
same,T/C,"dose: 6.25 mg/kg/injection, schedule: Q04DX003 (ip), vehicle: other",162 % of control and 165 % of control
same,T/C,"dose: 6.48 mg/kg/injection, schedule: Q04DX003 (ip), vehicle: other",180 % of control
same,T/C,"dose: 6.7 mg/kg/injection, schedule: Q01DX005 (ip), vehicle: other",172 % of control and 176 % of control
same,T/C,"dose: 6.7 mg/kg/injection, schedule: Q01DX005 (iv), vehicle: clinical formulation",187 % of control and 197 % of control
same,T/C,"dose: 6.7 mg/kg/injection, schedule: Q01DX005 (iv), vehicle: other",161 % of control and 162 % of control
same,T/C,"dose: 10.0 mg/kg/injection, schedule: Q01DX005 (ip), vehicle: clinical formulation",235 % of control and 238 % of control
same,T/C,"dose: 10.0 mg/kg/injection, schedule: Q01DX005 (ip), vehicle: distilled water + Tween-80",180 % of control and 243 % of control
same,T/C,"dose: 10.0 mg/kg/injection, schedule: Q01DX005 (ip), vehicle: other",195 % of control (2×) and 218 % of control
same,T/C,"dose: 10.0 mg/kg/injection, schedule: Q01DX005 (iv), vehicle: clinical formulation",208 % of control and 211 % of control
same,T/C,"dose: 10.0 mg/kg/injection, schedule: Q01DX005 (iv), vehicle: other",176 % of control and 193 % of control
same,T/C,"dose: 10.8 mg/kg/injection, schedule: Q04DX003 (ip), vehicle: other",183 % of control
same,T/C,"dose: 12.5 mg/kg/injection, schedule: Q01DX001 (ip), vehicle: other",155 % of control and 157 % of control
same,T/C,"dose: 12.5 mg/kg/injection, schedule: Q01DX001 (sc), vehicle: other",103 % of control
same,T/C,"dose: 12.5 mg/kg/injection, schedule: Q01DX009 (ip), vehicle: saline + alcohol",178 % of control
same,T/C,"dose: 12.5 mg/kg/injection, schedule: Q01DX009 (oral), vehicle: other",158 % of control
same,T/C,"dose: 12.5 mg/kg/injection, schedule: Q01DX009 (oral), vehicle: saline",156 % of control
same,T/C,"dose: 12.5 mg/kg/injection, schedule: Q04DX003 (ip), vehicle: other",166 % of control and 187 % of control
same,T/C,"dose: 15.0 mg/kg/injection, schedule: Q01DX005 (ip), vehicle: other",224 % of control and 237 % of control
same,T/C,"dose: 15.0 mg/kg/injection, schedule: Q01DX005 (iv), vehicle: clinical formulation",215 % of control and 224 % of control
same,T/C,"dose: 15.0 mg/kg/injection, schedule: Q01DX005 (iv), vehicle: other",196 % of control
same,T/C,"dose: 15.0 mg/kg/injection, schedule: Q01DX009 (oral), vehicle: other",197 % of control
same,T/C,"dose: 18.0 mg/kg/injection, schedule: Q04DX003 (ip), vehicle: other",240 % of control
same,T/C,"dose: 20.0 mg/kg/injection, schedule: Q01DX005 (ip), vehicle: clinical formulation",117 % of control and 284 % of control
same,T/C,"dose: 20.0 mg/kg/injection, schedule: Q01DX005 (ip), vehicle: distilled water + Tween-80",270 % of control and 280 % of control
same,T/C,"dose: 20.0 mg/kg/injection, schedule: Q01DX005 (ip), vehicle: other",284 % of control
same,T/C,"dose: 22.0 mg/kg/injection, schedule: Q01DX009 (oral), vehicle: other",231 % of control
same,T/C,"dose: 22.5 mg/kg/injection, schedule: Q01DX005 (ip), vehicle: other",346 % of control
same,T/C,"dose: 25.0 mg/kg/injection, schedule: Q01DX001 (ip), vehicle: other",150 % of control and 160 % of control
same,T/C,"dose: 25.0 mg/kg/injection, schedule: Q01DX001 (sc), vehicle: other",106 % of control and 112 % of control
same,T/C,"dose: 25.0 mg/kg/injection, schedule: Q01DX009 (ip), vehicle: saline + alcohol",231 % of control
same,T/C,"dose: 25.0 mg/kg/injection, schedule: Q01DX009 (oral), vehicle: other",111 % of control and 211 % of control and 96 % of control
same,T/C,"dose: 25.0 mg/kg/injection, schedule: Q01DX009 (oral), vehicle: saline",229 % of control
same,T/C,"dose: 25.0 mg/kg/injection, schedule: Q04DX003 (ip), vehicle: other",192 % of control and 193 % of control
same,T/C,"dose: 30.0 mg/kg/injection, schedule: Q04DX003 (ip), vehicle: other",247 % of control
same,T/C,"dose: 50.0 mg/kg/injection, schedule: Q01DX001 (ip), vehicle: other",157 % of control and 197 % of control
same,T/C,"dose: 50.0 mg/kg/injection, schedule: Q01DX001 (sc), vehicle: other",100 % of control and 122 % of control
same,T/C,"dose: 50.0 mg/kg/injection, schedule: Q01DX009 (oral), vehicle: other",101 % of control and 103 % of control and 91 % of control
same,T/C,"dose: 50.0 mg/kg/injection, schedule: Q01DX009 (oral), vehicle: saline",91 % of control
same,T/C,"dose: 50.0 mg/kg/injection, schedule: Q04DX003 (ip), vehicle: other",182 % of control and 252 % of control
same,T/C,"dose: 100.0 mg/kg/injection, schedule: Q01DX001 (ip), vehicle: other",169 % of control
same,T/C,"dose: 100.0 mg/kg/injection, schedule: Q01DX001 (sc), vehicle: other",105 % of control
same,T/C,"dose: 200.0 mg/kg/injection, schedule: Q01DX001 (ip), vehicle: other",175 % of control
same,T/C,"dose: 200.0 mg/kg/injection, schedule: Q04DX003 (ip), vehicle: other",95 % of control
CCCCOC(=O)C1=NNC(=O)C1,T/C,"dose: 25.0 mg/kg/injection, schedule: Q01DX009 (ip), vehicle: Klucel (hydroxypropylcellulose) (HPC)",115 % of control
same,T/C,"dose: 50.0 mg/kg/injection, schedule: Q01DX009 (ip), vehicle: Klucel (hydroxypropylcellulose) (HPC)",108 % of control
same,T/C,"dose: 100.0 mg/kg/injection, schedule: Q01DX009 (ip), vehicle: Klucel (hydroxypropylcellulose) (HPC)",112 % of control
same,T/C,"dose: 200.0 mg/kg/injection, schedule: Q01DX009 (ip), vehicle: Klucel (hydroxypropylcellulose) (HPC)",108 % of control
CN(C(=[Se])[Se]C(=[Se])N(C)C1CCCCC1)C1CCCCC1,T/C,"dose: 15.0 mg/kg/injection, schedule: Q01DX005 (ip), vehicle: Klucel (hydroxypropylcellulose) (HPC)",95 % of control
same,T/C,"dose: 30.0 mg/kg/injection, schedule: Q01DX005 (ip), vehicle: Klucel (hydroxypropylcellulose) (HPC)",96 % of control
same,T/C,"dose: 60.0 mg/kg/injection, schedule: Q01DX005 (ip), vehicle: Klucel (hydroxypropylcellulose) (HPC)",100 % of control and 93 % of control
same,T/C,"dose: 120.0 mg/kg/injection, schedule: Q01DX005 (ip), vehicle: Klucel (hydroxypropylcellulose) (HPC)",99 % of control
